# Where a SMILES comes first, the peptide text is derived from it. [ ]: non-standard residue; d: D form. 2Thi = N[C@@H](Cc1cccs1)C(=O)O; Aib = CC(C)(N)C(=O)O
# Columns and labels:
# [1] = Circular dichroism spectroscopy, secondary structure; assay type: physicochemical; conditions: 0.1 mg/mL, 25°C; for [θ]222: average of three scans; for %α-helix: from [θ]222
# Experimental: The secondary structures of Pep05 and its derivatives were investigated using a Chirascan qCD Spectrometer (Applied Photophysics, United Kingdom). The peptides were dissolved to a final concentration of 0.1 mg/mL in four different solvents, namely, 10 mM phosphate buffer (PB; pH 7.4), 50% TFE/PB, 25 mM SDS in PB, and 0.1% LPS in PB ([Kim et al., 2017]). Circular dichroism (CD) spectra were recorded from 260 to 190 nm at 25°C as the average of three scans. Data were collected using a path length of 0.1 cm, scan speed of 50 nm/min, bandwidth of 1.0 nm, response time of 1 s, and resolution of 0.1 nm ([Khara et al., 2016]). Following background subtraction, the observed ellipticity [θ]obs (mdeg) was converted to molar ellipticity [θ] (deg⋅cm^2⋅dmol^–1) using the equation [θ] = [θ]obs(MRW/10cl), where [θ]obs is the observed ellipticity corrected for the blank at a given wavelength (mdeg), MRW is the mean residue molecular weight (molecular weight/number of amino acids), c is the peptide concentration (mg/mL), and l is the path length (cm). Assuming a two-state model, the percentage of α-helix structure was calculated using the following equation: α-helical content = −([θ]222 + 2000)/30000 × 100% ([Jia et al., 2017]).
# The influence of the amino acid substitutions on the peptide secondary structure was investigated using CD spectroscopy under different conditions, including 10 mM PB at pH 7.4 (mimicking an aqueous environment), 50% TFE (mimicking a hydrophobic bacterial membrane environment), 25 mM SDS (mimicking a negatively charged bacterial membrane environment), and 0.1% LPS (mimicking a bacterial outer membrane environment).
# [2] = Hydrophobicity by RP-HPLC retention time; assay type: physicochemical
# Experimental: Each peptide was dissolved in ddH2O to a concentration of 0.5 mg/mL and then subjected to RP-HPLC on an analytical Waters XBridge C18 column (length: 250 mm, internal diameter: 4.6 mm) using 0.1% TFA in water as solvent A and 0.1% TFA in acetonitrile as solvent B. The peptides were eluted using a linear gradient as follows: 5%B to 45%B over 20 min, 45%B to 60%B over 2 min, and 60%B to 5%B over 1 min. The flow rate was 1 mL/min and the absorbance was measured at 215 nm. The retention time was recorded for each peptide ([Kim et al., 2005]).
# Peptide hydrophobicity, net charge, amphipathic nature, and secondary structure are believed to be important for antimicrobial activity ([Lee et al., 2016]; [Li J. et al., 2017]). Among these, hydrophobicity has been recognized as an important factor to promote hydrophobic interaction with the hydrophobic core of the lipid bilayer, leading to membrane disruption, cytoplasm leakage, and eventual cell death ([Schmidtchen et al., 2014]). However, the actual hydrophobicity in liquid environment has been reported to usually show disagreement with the theoretical mean hydrophobicity ([Kim et al., 2005]). […] More hydrophobic compounds are typically eluted later from the column. […]
Structure (SMILES),degradation products by plasma proteases (LC-MS) (human plasma proteases),[θ]222 ([1]; 10 mM PB buffer pH 7.4),"%α-helix ([1]; 10 mM PB buffer pH 7.4, rc = random coil)",[θ]222 ([1]; 25 mM SDS in PB),"%α-helix ([1]; 25 mM SDS in PB, rc = random coil)",[θ]222 ([1]; 0.1% LPS in PB),%α-helix ([1]; 0.1% LPS in PB),[θ]222 ([1]; 50% TFE/PB),"%α-helix ([1]; 50% TFE/PB, rc = random coil)","relative retention time (RRT) with respect to Pep05 ([2]; RP-HPLC retention time of peptide / that of Pep05, C18, acetonitrile/water/TFA)","RT (RP-HPLC retention time, measure of hydrophobicity) ([2]; chromatographic, Waters XBridge C18 250 x 4.6 mm, 0.5 mg/mL in ddH2O, A 0.1% TFA/water, B 0.1% TFA/acetonitrile, 5-45%B over 20 min, 1 mL/min, UV 215 nm)"
CC(C)C[C@H](NC(=O)[C@H](CC(C)C)NC(=O)[C@@H](CCCCN)NC(=O)[C@@H](CCCCN)NC(=O)[C@H](Cc1ccccc1)NC(=O)[C@H](CC(C)C)NC(=O)[C@@H](CCCNC(=N)N)NC(=O)[C@H](N)CCCCN)C(=O)N[C@H](CCCCN)C(=O)N[C@@H](Cc1ccc(O)cc1)C(=O)N[C@@H](CC(C)C)C(=O)N[C@H](CCCNC(=N)N)C(=O)N[C@H](CCCCN)C(=O)N[C@@H](Cc1ccccc1)C(N)=O [DP06] (H-[dK][dR]LF[dK][dK]LL[dK]YL[dR][dK]F-NH2),No obvious degradation products,,,,,,,,,,
CC(C)C[C@H](NC(=O)[C@H](Cc1ccc(O)cc1)NC(=O)[C@H](CCCCN)NC(=O)[C@H](CC(C)C)NC(=O)[C@H](CC(C)C)NC(=O)[C@H](CCCCN)NC(=O)[C@H](CCCCN)NC(=O)[C@H](Cc1ccccc1)NC(=O)[C@H](CC(C)C)NC(=O)[C@H](CCCNC(=N)N)NC(=O)C(C)(C)N)C(=O)N[C@@H](CCCNC(=N)N)C(=O)N[C@@H](CCCCN)C(=O)N[C@@H](Cc1cccs1)C(N)=O [UP09] (H-[Aib]RLFKKLLKYLRK[2Thi]-NH2; N-terminus assumed),,–1842.7 deg⋅cm^2⋅dmol^–1,rc,–4643.3 deg⋅cm^2⋅dmol^–1,8.8%,–11064.1 deg⋅cm^2⋅dmol^–1,30.2%,–11436.9 deg⋅cm^2⋅dmol^–1,31.5%,1.08,16.606 min
